The values that follow come from paper PMC6563844, “Identification and in vivo Efficacy Assessment of Approved Orally Bioavailable Human Host Protein-Targeting Drugs With Broad Anti-influenza A Activity” (Frontiers in Immunology, 2019).

Where two headings read alike, the source gives them in different places. Some results are limits rather than exact numbers.

Series [1] relates to H1N1 A/Puerto Rico/8/34 (PR8).
Series [2] concerns influenza strains A/Puerto Rico/8/34 (PR8), A/Mexico/InDRE4487/2009 (H1N1pdm09), A/Victoria/36/2011 (H3N2). Type of series: cell-based, influenza A virus.
Series [3] concerns PR8. In words: microbe, parasite or virus in culture. Type of series: cell-based, influenza A virus.
Series [4] deals with pH1N1 (H1N1pdm09 A/Mexico/InDRE4487/2009). In words: microbe, parasite or virus in culture. Type of series: cell-based, influenza A virus.
The subject of series [5] is H3N2 (A/Victoria/36/2011). Kind of series: microbe, parasite or virus in culture. Type of series: cell-based, influenza A virus.
In series [6] the test system is PR8. Further details: species or system C57BL/6 mice. The conditions noted are these: mouse, in vivo, po.
Series [7] concerns H1N1pdm09 (A/Mexico/InDRE4487/2009). Further details: species or system ferrets (mustela putorius furo). The conditions noted are these: in vivo.
The test system of series [8] is H1N1 and H3N2 influenza A viruses (PR8, H1N1pdm09, H3N2). Kind of series: microbe, parasite or virus in culture. Type of series: cell-based.
The nature of a further series: MTT assay (cytotoxicity). The conditions noted are these: dog.
In the next series the test system is MDCK cells. Kind of series: MTT assay (cytotoxicity). The conditions noted are these: MDCK cells, 24 h, MTT.
A further series is described as follows: in vitro. The conditions noted are these: dog.
[9] abbreviates: read-out: EC50 (50% effective dose).

Method for MDCK cells: (§1) The MTT assay was performed according to the manufacturer's protocol (Thermo Fisher Vybrant MTT Cell Proliferation Assay Kit). Briefly, MDCK cells grown in a 96-well-plate were treated with the respective drugs at 5-fold descending concentrations starting at 500 mM or left untreated. After 24 h, medium was replaced by PBS containing 1 mM MTT. After incubation for 4 h at 37°C, supernatants were removed, mixed with DMSO and further incubated for 10 min at 37°C before absorption was measured at 562 nm using a PHOmo Microplate reader. To calculate the relative cytotoxicity, the absorbance of untreated cells was set to 1. The 50% cytotoxic concentration (CC50) was calculated using GraphPad 6, and the selectivity index (SI) represents the ratio of CC50 to EC50.
Method for in vitro: as §1

For `Nc1ncnc2c1ncn2[C@@H]1O[C@H](COP(=O)(O)OP(=O)(O)OP(=O)(O)O)[C@@H](O)[C@H]1O` [Adenosine triphosphate], in series [1], the Inhibitory effect entry is given as “No inhibition” and the “antiviral activity in initial screen” value was “no antiviral activity”.

For `NCCCC(O)(P(=O)(O)O)P(=O)(O)O` [Alendronate], in series [1], the Inhibitory effect entry was “toxic” and the antiviral activity entry is recorded as “no antiviral activity”.

On to `N=C(N)NC(=O)c1nc(Cl)c(N)nc1N` [Amiloride], for which, in series [1], the Inhibitory effect entry was “No inhibition” and the “antiviral activity in initial screen” value is on record as “no antiviral activity”.

On to `CN(C)/N=N/c1[nH]cnc1C(N)=O` [Dacarbazine], for which, in series [1], the Inhibitory effect result is listed as “no inhibition” and the “antiviral activity in initial screen” value was “no antiviral activity”.

`COc1ccc2c(c1)[C@]13CCCC[C@@H]1[C@H](C2)N(C)CC3` [Dextromethorphan]: the “reduction of viral titers” value in series [2] is listed as “around 1,000 fold”. In addition, in the series on PR8 [3] (Influenza A virus, PR8, MDCK), the response was half-maximal at 48.7 ± 2.3 µM (EC50). Besides, the EC50 in [4] (Influenza A virus, MDCK, pH1N1) amounted to 50.8 ± 3.3 µM. It took 51.7 ± 4.2 µM to reach a half-maximal effect in series [5] (Influenza A virus, H3N2, MDCK) (EC50). Moreover, the “effect on lung viral titers” value in the series with PR8 [6] is listed as “more variable but significant reduction”. Besides, in series [7], the clinical score entry is “significantly lower peak score” and the weight loss is reported as below 10%. Further, in series [7] (po), the body weight effect result is “slightly increase the weight loss” and the “effect on nasal wash titers” value is “no effect”. For the same compound, the 50% effective concentration (EC50) in [8] (setting [9]) fell in the range of 5 to 50 µM. Moreover, in [1], the “Inhibitory effect (fold inhibition)” value is reported as >10-fold inhibition and the “antiviral activity in initial screen” value is “able to inhibit infection at doses above 50 μM without causing toxicity”. Besides, the CC50 at 24 h in “MTT assay (cytotoxicity)” was determined as 3546 ± 11.1 µM.

Take `CC(O)(P(=O)(O)O)P(=O)(O)O` [Etidronic Acid]: in series [1], the Inhibitory effect result is “No inhibition” and the “antiviral activity in initial screen” value is “no antiviral activity”.

For `O=[N+]([O-])[O-].O=[N+]([O-])[O-].O=[N+]([O-])[O-].[Ga+3]` [Gallium nitrate], in [2], the “reduction of viral titers” value is “around 10 fold”. Further, the 50% effective concentration (EC50) with PR8 [3] (read-out: EC50) worked out at 54.8 ± 2.2 µM; in series [4] (pH1N1), 55.3 ± 2.9 µM; in series [5] (read-out: EC50), 5.7 ± 0.9 µM. In addition, in the series on PR8 [6], the “effect on lung viral titers” value is on record as “no significant effect”. Further, the “Inhibitory effect (fold inhibition)” value in series [1] was >10-fold inhibition. The “antiviral activity in initial screen” value in series [1] is recorded as “able to inhibit infection at doses above 50 μM without causing toxicity”. In the series on MDCK cells, this compound registered a CC50 of 716 ± 116 µM.

On to `CCCCC1=NC2(CCCC2)C(=O)N1Cc1ccc(-c2ccccc2-c2nnn[nH]2)cc1` [Irbesartan], for which, in series [1], the Inhibitory effect result was “toxic”, the antiviral activity entry is reported as “no antiviral activity” and the “toxicity in the screen” value is recorded as “pronounced toxicity”.

Consider `CC(C)NCC(O)c1ccc(O)c(O)c1` (centres unmarked) [Isoproterenol], for which, in series [1], the Inhibitory effect result is on record as “toxic”, the antiviral activity result is “no antiviral activity” and the “toxicity in the screen” value is recorded as “pronounced toxicity”.

As to `CN1CCC(=C2c3ccccc3CC(=O)c3sccc32)CC1` [Ketotifen], the “reduction of viral titers” value in series [2] was 100 fold. Also, the EC50 was 5.9 ± 0.2 µM in the series on PR8 [3] (Influenza A virus, PR8, MDCK); 33.7 ± 1.3 µM in series [4] (Influenza A virus, MDCK, pH1N1); 48.5 ± 2 µM in [5] (Influenza A virus, H3N2, MDCK); 5 to 50 µM in series [8] (setting [9]). Moreover, the “Inhibitory effect (fold inhibition)” value in series [1] is >10-fold inhibition. The “antiviral activity in initial screen” value in [1] is “able to inhibit infection at doses above 50 μM without causing toxicity”. Moreover, in the series “in vitro”, the CC50 at 24 h is 291 ± 14.8 µM.

Consider `N[C@@H](CCC(=O)O)C(=O)O` [L-Glutamic Acid], for which, in [1], the Inhibitory effect result is on record as “No inhibition” and the “antiviral activity in initial screen” value was “no antiviral activity”.

Regarding `CC(=O)N[C@@H]1[C@@H](O)[C@H](O)[C@@H](CO)O[C@@H]1O` [N-Acetyl-D-Glucosamine], in [1], the Inhibitory effect result is recorded as “No inhibition” and the “antiviral activity in initial screen” value is listed as “no antiviral activity”.

In the case of `O=C1CC[C@@]2(O)[C@H]3Cc4ccc(O)c5c4[C@@]2(CCN3CC2CC2)[C@H]1O5` [Naltrexone], the “reduction of viral titers” value in series [2] is 100 fold. Further, the EC50 in the series on PR8 [3] (Influenza A virus, PR8, MDCK) was 4.7 ± 0.2 µM; in series [4] (Influenza A virus, MDCK, pH1N1) it was 48 ± 3.2 µM; in [5] (Influenza A virus, H3N2, MDCK) it was above 500 µM; in series [8] it was 5 to 50 µM. Moreover, the inhibition efficiency entry in series [5] is “less efficient”. In addition, the “effect on lung viral titers” value with PR8 [6] is given as “no significant effect”. In addition, the “Inhibitory effect (fold inhibition)” value in series [1] is listed as >10-fold inhibition. In addition, in series [1], the “antiviral activity in initial screen” value is given as “able to inhibit infection at doses above 50 μM without causing toxicity”. For the same compound, in the series “MTT assay (cytotoxicity)”, the CC50 at 24 h turned out to be 5230 ± 227 µM.

`CCOC(=O)C1=C[C@@H](OC(CC)CC)[C@H](NC(C)=O)[C@@H](N)C1` [Oseltamivir phosphate, oseltamivir phosphate]: in the series with PR8 [6], the “reduction of lung titers” value is listed as 28 fold. The clinical score entry in series [7] is given as “minimal clinical score peaking on day 3”. For the same compound, the “reduction in nasal wash titers” value in [7] (po) turned out to be 10 fold.

On to `CCOC(=O)C1=C[C@@H](OC(CC)CC)[C@H](NC(C)=O)[C@@H](N)C1` [Oseltamivir], for which the EC50 was 0.005 ± 0.0004 µM in the series on PR8 [3] (Influenza A virus, PR8, MDCK); 0.2 ± 0.05 µM in [4] (Influenza A virus, MDCK, pH1N1); 0.05 ± 0.003 µM in series [5] (Influenza A virus, H3N2, MDCK). Further, the CC50 at 24 h in “in vitro” worked out at 470 ± 12.3 µM.

With `O=C1CCC(N2C(=O)c3ccccc3C2=O)C(=O)N1` (centres unmarked) [Thalidomide], in series [1], the Inhibitory effect entry was “No inhibition” and the “antiviral activity in initial screen” value was “no antiviral activity”.

With `CC[C@]1(O)C[C@@H]2CN(CCc3c([nH]c4ccccc34)[C@@](C(=O)OC)(c3cc4c(cc3OC)N(C)[C@H]3[C@@](O)(C(=O)OC)[C@H](OC(C)=O)[C@]5(CC)C=CCN6CC[C@]43[C@@H]65)C2)C1` [Vinblastine], in series [1], the Inhibitory effect entry is on record as “toxic”, the antiviral activity result is given as “no antiviral activity” and the “toxicity in the screen” value was “pronounced toxicity”.

As to `CCC(CC)O[C@@H]1C=C(C(=O)O)C[C@H](N)[C@H]1NC(C)=O` [oseltamivir carboxylate], the “concentration completely inhibiting replication” value in [2] is given as “higher than 5 μM”. For the same compound, the EC50 in the series with PR8 [3] (read-out: EC50) is 0.005 µM; in [4], around 0.2 µM.

One may read the EC50 as the concentration giving half of the maximal effect.
